Values quoted from earlier work, collected in PMC2970513 (Chemical biology & drug design, 2009).

Tested on: μ receptor
Details: compared with the N-methylated cyclic peptides of this paper

H-Tyr-D-Ala(NMe)-Phe-Sar-NH2
μ receptor binding affinity, fold lower than those of the N-methylated cyclic peptides described here: 30-80 fold
